From patent publication US9737505B2, “Prodrug of 1,1′-(1,6-dioxo-1,6-hexanediyl)bis-D-proline” (GlaxoSmithKline Intellectual Property Development Limited, priority 2014, dated 2017)
Where two headings read alike, the source gives them in different places.

How the values were obtained:
SAP [1] = target: T1, SAP (Homo sapiens, UniProt P02743); details: patients with Alzheimer's disease, cited from earlier work
T1 construct: Depletion of plasma SAP by CPHPC, from the normal 20-50 mg/L to <0.1 mg/L; host or cells: circulating SAP in plasma and CSF of patients

SAP [2] = target: T1, SAP; details: systemic amyloidosis patients, for as long as the drug was administered; cited from earlier work
[3] = very low and variable; cited from earlier work
CYP2C9 = target: T2, CYP2C9 (Homo sapiens, UniProt P11712); assay: Cytochrome p450 inhibition assay (bactosomes, fluorogenic substrate FCA); assay type: biochemical; details: recombinant human CYP (Cypex bactosomes)
T2 construct: purchased Cypex; host or cells: bactosomes (bacterial membranes)
Description: (§1) The assay was designed to evaluate inhibition on cytochrome P450 (CYP) 3A4, 2C9, 2C19, 1A2 and 2D6 enzymes from bactosomes source using fluorogenic substrates. Compound (compound of Formula (I) or Comparator Compound) was dissolved in methanol at 1.65 mM. Daughter solutions were prepared in methanol at 660, 264, 106, 42, 17, 6.8, 2.7, 1.1 and 0.43 μM. NADPH cofactor was prepared with Glucose-6-phosphate (7.8 mg), Glucose-6-phosphate dehydrogenase (6 units), NADP (1.7 mg) per 1 mL in NaHCO3 2%. Substrate preparation was as follows: • 7-Methoxy-4-triFluoromethyl Coumarin-3-Acetic acid ethyl ester (FCA): 12.5 mM in acetonitrile • EthoxyResorufin (ER): 0.05 mM in acetonitrile • 4-MethylaminoMethyl-7-Methoxy Coumarin (MMC): 2.5 mM in methanol • 3-Butyryl-7Methoxy Coumarin (BMC): 2.5 mM in DMSO • 7-BenzyloxyQuinoline (7BQ): 2.5 mM in acetonitrile • DiEthoxyFluorescein (DEF): 0.1 mM in acetonitrile Bactosomes (Cypex source) at the concentration of 10 mg of protein per ml were diluted in phosphate buffer 50 mM pH7.4: • 0.33 ml of bactosomes CYP2C9 with 23.8 ml of buffer and 0.11 ml of FCA • 0.33 ml of bactosomes CYP1A2 with 23.6 ml of buffer and 0.275 ml of ER • 0.33 ml of bactosomes CYP2D6 with 23.8 ml of buffer and 0.11 ml of MMC • 0.33 ml of bactosomes CYP2C19 with 23.8 ml of buffer and 0.11 ml of BMC • 0.33 ml of bactosomes CYP3[…] with 23.6 ml of buffer and 0.275 ml of 7BQ • 0.33 ml of bactosomes CYP3[…] with 23.6 ml of buffer and 0.275 ml of DEF Pre-Incubation consisted in mixing 5 μl of compound solution with 220 μl diluted bactosomes and warming it at 37° C. for 10 min. Incubation was started with the addition of 25 μl of NADPH. […]

CYP2C19 = target: T3, CYP2C19 (Homo sapiens, UniProt P33261); assay: Cytochrome p450 inhibition assay (bactosomes, fluorogenic substrate BMC); assay type: biochemical; details: recombinant human CYP (Cypex bactosomes)
T3 construct: purchased Cypex; host or cells: bactosomes (bacterial membranes)
Description: as §1

CYP1A2 = target: T4, CYP1A2 (Homo sapiens, UniProt P05177); assay: Cytochrome p450 inhibition assay (bactosomes, fluorogenic substrate ER); assay type: biochemical; details: recombinant human CYP (Cypex bactosomes)
T4 construct: purchased Cypex; host or cells: bactosomes (bacterial membranes)
T4 sequence (P05177 1-516): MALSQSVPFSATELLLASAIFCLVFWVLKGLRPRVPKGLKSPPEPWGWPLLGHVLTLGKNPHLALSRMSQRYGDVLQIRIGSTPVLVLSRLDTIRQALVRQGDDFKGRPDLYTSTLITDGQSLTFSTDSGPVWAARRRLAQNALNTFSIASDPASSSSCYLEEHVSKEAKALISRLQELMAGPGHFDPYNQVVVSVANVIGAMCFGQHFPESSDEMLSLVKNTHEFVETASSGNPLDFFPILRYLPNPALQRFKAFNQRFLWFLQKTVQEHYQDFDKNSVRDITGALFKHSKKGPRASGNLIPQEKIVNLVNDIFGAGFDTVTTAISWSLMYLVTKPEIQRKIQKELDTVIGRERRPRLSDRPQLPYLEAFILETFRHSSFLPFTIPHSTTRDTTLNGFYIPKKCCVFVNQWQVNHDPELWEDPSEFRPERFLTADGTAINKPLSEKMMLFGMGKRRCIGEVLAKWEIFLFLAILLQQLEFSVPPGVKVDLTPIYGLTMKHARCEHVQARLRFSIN
Description: as §1

CYP3A4 = target: T5, CYP3A4 (Homo sapiens, UniProt P08684); assay: Cytochrome p450 inhibition assay (bactosomes, fluorogenic substrates 7BQ and DEF); assay type: biochemical; details: recombinant human CYP (Cypex bactosomes)
T5 construct: purchased Cypex; host or cells: bactosomes (bacterial membranes)
Description: The assay was designed to evaluate inhibition on cytochrome P450 (CYP) 3A4, 2C9, 2C19, 1A2 and 2D6 enzymes from bactosomes source using fluorogenic substrates. Compound (compound of Formula (I) or Comparator Compound) was dissolved in methanol at 1.65 mM. Daughter solutions were prepared in methanol at 660, 264, 106, 42, 17, 6.8, 2.7, 1.1 and 0.43 μM. NADPH cofactor was prepared with Glucose-6-phosphate (7.8 mg), Glucose-6-phosphate dehydrogenase (6 units), NADP (1.7 mg) per 1 mL in NaHCO3 2%. Substrate preparation was as follows: • 7-Methoxy-4-triFluoromethyl Coumarin-3-Acetic acid ethyl ester (FCA): 12.5 mM in acetonitrile • EthoxyResorufin (ER): 0.05 mM in acetonitrile • 4-MethylaminoMethyl-7-Methoxy Coumarin (MMC): 2.5 mM in methanol • 3-Butyryl-7Methoxy Coumarin (BMC): 2.5 mM in DMSO • 7-BenzyloxyQuinoline (7BQ): 2.5 mM in acetonitrile • DiEthoxyFluorescein (DEF): 0.1 mM in acetonitrile Bactosomes (Cypex source) at the concentration of 10 mg of protein per ml were diluted in phosphate buffer 50 mM pH7.4: • 0.33 ml of bactosomes CYP2C9 with 23.8 ml of buffer and 0.11 ml of FCA • 0.33 ml of bactosomes CYP1A2 with 23.6 ml of buffer and 0.275 ml of ER • 0.33 ml of bactosomes CYP2D6 with 23.8 ml of buffer and 0.11 ml of MMC • 0.33 ml of bactosomes CYP2C19 with 23.8 ml of buffer and 0.11 ml of BMC • 0.33 ml of bactosomes CYP3[…] with 23.6 ml of buffer and 0.275 ml of 7BQ • 0.33 ml of bactosomes CYP3[…] with 23.6 ml of buffer and 0.275 ml of DEF Pre-Incubation consisted in mixing 5 μl of compound solution with 220 μl diluted bactosomes and warming it at 37° C. for 10 min. Incubation was started with the addition of 25 μl of NADPH. Then fluorescence of substrate metabolite was read in a SAFIRE instrument (from Tecan) for 5 min: • FCA (2C9): Excitation at 410 nm and Emission at 510 nm • ER (1A2): Excitation at 530 nm and Emission at 590 nm • MMC (2D6): Excitation at 410 nm and Emission at 485 nm • BMC (2C19): Excitation at 410 nm and Emission at 465 nm • 7BQ (3A4H): Excitation at 410 nm and Emission at 530 nm • DEF (3A4L): Excitation at 485 nm and Emission at 530 nm Plotting of inhibition of substrate production against compound concentration allowed the determination of IC50 values.

CYP2D6 = target: T6, CYP2D6 (Homo sapiens, UniProt P10635); assay: Cytochrome p450 inhibition assay (bactosomes, fluorogenic substrate MMC); assay type: biochemical; details: recombinant human CYP (Cypex bactosomes)
T6 construct: purchased Cypex; host or cells: bactosomes (bacterial membranes)
Description: as §1

T1 sequence (P02743 20-223): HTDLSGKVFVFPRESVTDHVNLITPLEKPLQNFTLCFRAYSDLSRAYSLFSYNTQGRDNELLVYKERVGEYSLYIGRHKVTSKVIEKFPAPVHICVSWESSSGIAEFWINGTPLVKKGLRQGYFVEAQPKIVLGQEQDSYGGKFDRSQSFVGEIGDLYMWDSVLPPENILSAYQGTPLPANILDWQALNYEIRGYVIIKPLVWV
T5 sequence (P08684 whole entry): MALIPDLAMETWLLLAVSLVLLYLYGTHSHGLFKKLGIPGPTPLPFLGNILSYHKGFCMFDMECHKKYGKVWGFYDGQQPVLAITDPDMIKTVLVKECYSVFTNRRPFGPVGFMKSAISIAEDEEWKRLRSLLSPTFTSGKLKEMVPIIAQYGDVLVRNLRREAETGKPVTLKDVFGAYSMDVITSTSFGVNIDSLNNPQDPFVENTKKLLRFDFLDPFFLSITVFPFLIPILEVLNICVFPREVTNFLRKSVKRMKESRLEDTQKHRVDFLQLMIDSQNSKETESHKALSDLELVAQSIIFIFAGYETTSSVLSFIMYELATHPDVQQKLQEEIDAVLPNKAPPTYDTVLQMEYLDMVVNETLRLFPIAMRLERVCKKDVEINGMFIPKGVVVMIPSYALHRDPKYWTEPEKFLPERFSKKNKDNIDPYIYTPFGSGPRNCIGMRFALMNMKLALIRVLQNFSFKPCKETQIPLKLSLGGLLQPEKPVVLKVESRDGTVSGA
T2 sequence (P11712 whole entry): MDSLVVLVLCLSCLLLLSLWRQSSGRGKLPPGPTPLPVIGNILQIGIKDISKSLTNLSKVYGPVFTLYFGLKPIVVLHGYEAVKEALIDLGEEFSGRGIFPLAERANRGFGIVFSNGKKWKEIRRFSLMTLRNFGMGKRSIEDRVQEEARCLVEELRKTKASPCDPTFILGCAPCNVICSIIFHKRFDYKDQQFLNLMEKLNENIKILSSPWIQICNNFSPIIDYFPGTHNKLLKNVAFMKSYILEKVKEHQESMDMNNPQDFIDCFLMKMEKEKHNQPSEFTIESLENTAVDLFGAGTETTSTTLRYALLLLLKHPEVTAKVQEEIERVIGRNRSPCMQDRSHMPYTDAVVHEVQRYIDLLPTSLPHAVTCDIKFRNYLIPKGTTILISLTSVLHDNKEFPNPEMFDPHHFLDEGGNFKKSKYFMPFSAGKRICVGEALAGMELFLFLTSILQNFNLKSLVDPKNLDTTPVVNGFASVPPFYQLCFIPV
T3 sequence (P33261 whole entry): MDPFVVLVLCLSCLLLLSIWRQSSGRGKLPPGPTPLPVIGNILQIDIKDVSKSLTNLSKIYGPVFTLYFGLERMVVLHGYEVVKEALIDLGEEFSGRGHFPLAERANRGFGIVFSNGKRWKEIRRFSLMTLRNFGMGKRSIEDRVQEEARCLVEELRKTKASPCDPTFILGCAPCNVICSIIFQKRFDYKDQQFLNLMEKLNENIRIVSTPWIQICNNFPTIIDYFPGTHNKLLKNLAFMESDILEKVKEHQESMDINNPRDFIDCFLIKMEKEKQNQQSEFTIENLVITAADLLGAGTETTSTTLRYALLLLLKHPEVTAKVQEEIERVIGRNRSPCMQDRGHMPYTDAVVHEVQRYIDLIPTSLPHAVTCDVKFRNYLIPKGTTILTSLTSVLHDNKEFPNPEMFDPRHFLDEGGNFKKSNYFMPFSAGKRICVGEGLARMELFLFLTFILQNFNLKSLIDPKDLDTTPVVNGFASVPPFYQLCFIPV
T6 sequence (P10635 whole entry): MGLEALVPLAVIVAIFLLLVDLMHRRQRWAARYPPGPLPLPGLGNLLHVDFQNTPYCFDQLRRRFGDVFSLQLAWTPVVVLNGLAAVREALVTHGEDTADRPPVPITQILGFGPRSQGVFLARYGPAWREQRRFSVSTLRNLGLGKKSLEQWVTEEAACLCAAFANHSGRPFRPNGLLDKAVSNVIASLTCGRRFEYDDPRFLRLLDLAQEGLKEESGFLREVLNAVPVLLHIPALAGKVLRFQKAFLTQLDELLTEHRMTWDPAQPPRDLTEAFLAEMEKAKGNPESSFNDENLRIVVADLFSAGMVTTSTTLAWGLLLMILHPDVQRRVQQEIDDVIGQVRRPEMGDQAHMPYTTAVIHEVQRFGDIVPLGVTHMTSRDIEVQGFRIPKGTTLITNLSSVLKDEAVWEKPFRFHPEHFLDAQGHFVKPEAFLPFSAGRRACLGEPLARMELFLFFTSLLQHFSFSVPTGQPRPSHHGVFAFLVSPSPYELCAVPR

Row | SMILES | CSF SAP concentration after depletion (SAP [1]; from 2-30 μg/L) | Plasma SAP after depletion (SAP [1]; from the normal 20-50 mg/L) | Depletion of circulating SAP (SAP [2]) | Oral bioavailability [3] | IC50 (CYP2C9) | IC50 (CYP2C19) | IC50 (CYP1A2) | IC50 CYP3A4 (7BQ) (CYP3A4; substrate 7BQ) | IC50 (CYP3A4; substrate 7BQ, read-out: IC50 CYP3A4 (7BQ)) | IC50 CYP3A4 (DEF) (CYP3A4; substrate DEF) | IC50 (CYP3A4; substrate DEF, read-out: IC50 CYP3A4 (DEF)) | IC50 (CYP2D6)
1 | O=C(O)[C@H]1CCCN1C(=O)CCCCC(=O)N1CCC[C@@H]1C(=O)O [CPHPC, (R)-1-[6-[(R)-2-carboxy-pyrrolidin-1-yl]-6-oxo-hexanoyl]pyrrolidine-2-carboxylic acid] | < 0.1 µg/L | < 0.1 mg/L | almost complete depletion | 3-5% | – | – | – | – | – | – | – | –
2 | CC(OC(=O)[C@H]1CCCN1C(=O)CCCCC(=O)N1CCC[C@@H]1C(=O)OC(C)OC(=O)C(C)(C)C)OC(=O)C(C)(C)C (stereo partly drawn) [Comparator Compound, (2R,2′R)-bis(1-(pivaloyloxy)ethyl) 1,1′-adipoylbis(pyrrolidine-2-carboxylate), reference compound] | – | – | – | – | 26 µM | > 33 µM | > 33 µM | significant inhibition | 5.5 µM | significant inhibition | 1.1 µM | > 33 µM
